In patent publication US20160199343A1, “COMPOUNDS AND FORMULATIONS FOR THE TREATMENT OF WOUNDS” (NITTO DENKO CORPORATION, priority 2013, published 2016):

What was measured:
[1] = test system: full-thickness skin wounds; assay: Mouse full-thickness skin wound model, scar analysis by histology; format: in vivo; conditions: for reduction in scar index: full thickness excisional wounds in mice, same application formulation, versus control group
Experimental: The mouse model used here can be considered one of the simplest and standard murine models for investigating scar formation and wound healing.
Mice were weighed and then anaesthetized with 5% isoflurane in air for induction and then administered 2.5-3% of isoflurane in air for the remainder of the procedure. The animals were administered Tramal (Tramadol) intraperitoneally for analgesia at a 0.1 mg/kg dose. Before surgery the back of the mice was shaved and disinfected with isobetadine soap, rinsed with water and then swabbed with iodium alcohol.
The back of the mice was shaved and four full-thickness skin wounds were performed by cutting the folded skin on the back of the mice with a 7.5 mm×3 mm elliptical biopsy punch (Elliptical Excisional Instrument, Acuderm Inc.). The skin on the back was raised and folded at the level of the vertebral column by using the thumb and the index finger. The folded skin was then placed on a wood tongue depressor with the animal laying on one side and two wounds were performed through the folded skin by using an elliptical biopsy punch (Elliptical Excisional Instrument, Acuderm Inc.), resulting in four wounds on the back skin: two on the right of the vertebral column and two on the left (FIG. 9). The epidermis, the dermis and the fat tissue in the wound was carefully removed without touching other tissues. The wounds were then immediately treated with topical application of either the hydrogel or the ointment (glycerol+HEPES buffer) formulation containing the active substance (T1 and T2) or vehicle (Tv) and one wound was (Ts) left untreated (FIG. 9). The position of the wounds was randomised according to a list. The wound site was then covered with OP-Film (Somed International, the Netherlands) (FIG. 9). The borders were then fixed with cyanoacrylate glue (Loctite).
This model is identical to the excisional model above except that the wounds were closed with three sutures.
The treatment was repeated at the day 1, 2, 3 and 4 post-surgery for a total of 5 treatments in the first 5 days of healing. At each time point the mice were briefly anaesthetized with isoflurane and a new dose of ointment was injected through the film onto the wound, after which the animal was left to recover. At day 5 all films were removed.
After 14 days the mice were sacrificed under isoflurane anaesthesia by cervical dislocation to harvest the regenerated tissue. At sacrifice the mice were weighed and a gross necropsy was performed during which the following tissues are harvested:
Skin samples were also taken. The back of the mouse was carefully shaved paying careful attention to not touch the wound area. […]
The extent of scarring was measured in accordance with the procedure set out by Khorasani et al (2011). […]

[2] = test system: 3T3 mouse fibroblast; assay: In vitro scratch assay; format: cell-based; conditions: 3000 μM in culture medium, followed up to 12 hrs post scratching, linear regression
Experimental: The compounds of Formula (1) and (1a) were also tested by means of an in vitro model of wound healing. An in vitro scratch assay was performed as was described in Nature Protocols by Liang et al., 2007. In short, 3T3 mouse fibroblast were seeded onto a fibronectin coated 6-well plate and the confluent monolayers were scratched with a 200 μl pipette tip to obtain a linear gap in the monolayer. The closure of this monolayer was then followed up to 12 hrs post scratching. In order to evaluate the effect of the compound (isosorbide, isoidide and isomannide) either 30 μM or 3000 μM of the test compound were added to the culture medium. The increased dose was applied as the model cannot be entirely related to the in vivo situation as the closure time of this model is considerably faster as the in vivo wound (<18 hrs vs. weeks, resp.). The basic medium comprised DMEM, FCS 5%, HEPES 20 mM, L-glutamine 4 mM and 1% pen/strep. Hereto either nothing or the aforementioned concentrations of test compounds were added.

[3] = test system: infected and other superficial wounds; conditions: 120 patients, wounds treated with sugar; cited from earlier work
[4] = test system: S. aureus; conditions: cited from earlier work

## O[C@H]1CO[C@H]2[C@@H]1OC[C@@H]2O [Isoidide, 1,4:3,6-Dianhydro-D-iditol]
[1]
  reduction in scar index: 44%
[2]
  effect on closure speed (reduction): 27%

## O[C@@H]1CO[C@H]2[C@@H]1OC[C@H]2O [Isomannide, 1,4:3,6-dianhydro-D-mannitol]
[1]
  reduction in scar index: 38%
[2]
  effect on closure speed (reduction): 23%

## O[C@@H]1CO[C@H]2[C@@H]1OC[C@@H]2O [Isosorbide]
[1]; 1-way ANOVA with Dunnet's comparison, p<0.05
  Scar index compared to Vehicle-treated / control group (statistics): significantly different from Control and Vehicle
[1]; mouse wounds, upon administration
  Collagen organisation trend: increased values
[2]
  effect on closure speed (reduction): 10%

## OC[C@H]1O[C@@](CO)(O[C@H]2O[C@H](CO)[C@@H](O)[C@H](O)[C@H]2O)[C@@H](O)[C@@H]1O [sugar, sucrose]
[3]
  curing rate: 99.2%
[4]
  sugar solution concentration affecting complete in vitro growth of S. aureus: 183 g/100 g water
